Data on three molecules can be found in ChEMBL document CHEMBL3044649, “Zn(OTf)2-catalyzed three component, one-pot cyclocondensation reaction of some new octahydroquinazolinone derivatives and access their bio-potential” (2012).

Holding throughout (assay type): functional
The subject of one assay is Aspergillus fumigatus. As to the kind of experiment: Antimicrobial activity against Aspergillus fumigatus MTCC 3008 after 24 to 48 hr by broth microdilution method. Background: In broth dilution the organism is exposed to a series of concentrations in liquid medium.
In a further assay the test system is Streptococcus pneumoniae. As to the kind of experiment: Antimicrobial activity against Streptococcus pneumoniae MTCC 1936 after 24 to 48 hr by broth microdilution method.
The subject of a further assay is Clostridium tetani. As to the kind of experiment: Antimicrobial activity against Clostridium tetani MTCC 449 after 24 to 48 hr by broth microdilution method.
In another assay the test system is Candida albicans. In words: Antimicrobial activity against Candida albicans MTCC 227 after 24 to 48 hr by broth microdilution method.
A further assay has as its system Bacillus subtilis. As to the kind of experiment: Antimicrobial activity against Bacillus subtilis MTCC 441 after 24 to 48 hr by broth microdilution method.
Another assay deals with Escherichia coli. In words: Antimicrobial activity against Escherichia coli MTCC 443 after 24 to 48 hr by broth microdilution method.
Another assay relates to Vibrio cholerae. In words: Antimicrobial activity against Vibrio cholerae MTCC 3906 after 24 to 48 hr by broth microdilution method.
The subject of another assay is Salmonella typhi. As to the kind of experiment: Antimicrobial activity against Salmonella enterica subsp. enterica serovar Typhi MTCC 98 after 24 to 48 hr by broth microdilution method.

≈ marks a conversion by molar mass, not a printed value. Bounds are passed on as bounds.

As for `CC1(C)CC(=O)C2=C(C1)NC(=S)NC2c1cc2ccccc2[nH]c1=S` (centres undefined), the minimum inhibitory concentration (MIC) in the assay with Aspergillus fumigatus was found to be 500 µg/mL (≈ 1350 µM); against Streptococcus pneumoniae, 500 µg/mL (≈ 1350 µM); with Clostridium tetani, 200 µg/mL (≈ 541 µM); in the assay on Candida albicans, 250 µg/mL (≈ 677 µM); in the assay with Bacillus subtilis it was 250 µg/mL (≈ 677 µM); in the assay with Escherichia coli, 100 µg/mL (≈ 271 µM). The results for the MIC against Vibrio cholerae and against Salmonella typhi were 250 µg/mL (≈ 677 µM) and 100 µg/mL (≈ 271 µM), respectively.
`COc1ccc2[nH]c(=O)c(C3NC(=S)NC4=C3C(=O)CC(C)(C)C4)cc2c1` (centres undefined): the minimal inhibitory concentration (MIC) in the assay with Aspergillus fumigatus is more than 1000 µg/mL; with Streptococcus pneumoniae, 200 µg/mL (≈ 522 µM); in the assay on Clostridium tetani it was 200 µg/mL (≈ 522 µM); with Candida albicans, 500 µg/mL (≈ 1300 µM); against Bacillus subtilis, 200 µg/mL (≈ 522 µM); with Escherichia coli, 500 µg/mL (≈ 1300 µM). Moreover, the minimal inhibitory concentration (MIC) against Vibrio cholerae was determined as 200 µg/mL (≈ 522 µM); against Salmonella typhi it was 250 µg/mL (≈ 652 µM).
With `CC1(C)CC(=O)C2=C(C1)NC(=O)NC2c1cc2ccccc2[nH]c1=S` (centres undefined), the minimum inhibitory concentration (MIC) with Aspergillus fumigatus came out at 100 µg/mL (≈ 283 µM); against Streptococcus pneumoniae, 250 µg/mL (≈ 707 µM); in the assay on Clostridium tetani, 500 µg/mL (≈ 1410 µM); in the assay with Candida albicans, 100 µg/mL (≈ 283 µM); with Bacillus subtilis, 500 µg/mL (≈ 1410 µM); in the assay with Escherichia coli, 500 µg/mL (≈ 1410 µM). For the same molecule, the MIC with Vibrio cholerae was determined as 200 µg/mL (≈ 566 µM); against Salmonella typhi, 500 µg/mL (≈ 1410 µM).

The term MIC denotes the smallest concentration in the dilution series that meets the test's criterion for growth inhibition. Low values mean greater potency, high ones weaker potency.
